ChEMBL document CHEMBL1139192, “Novel bis(indolyl)maleimide pyridinophanes that are potent, selective inhibitors of glycogen synthase kinase-3” (Bioorg Med Chem Lett, 2007)

What was measured:
[1] = biological target: Proto-oncogene tyrosine-protein kinase Src (Homo sapiens) (UniProt P12931); experiment: Residual activity of human cSRC at 1 uM relative to control
[2] = biological target: T1, Mitogen-activated protein kinase 13 (Homo sapiens) (UniProt O15264); experiment: Inhibition of human SAPK4 at 1 uM relative to control; values are per cent of control
T1 sequence (whole entry): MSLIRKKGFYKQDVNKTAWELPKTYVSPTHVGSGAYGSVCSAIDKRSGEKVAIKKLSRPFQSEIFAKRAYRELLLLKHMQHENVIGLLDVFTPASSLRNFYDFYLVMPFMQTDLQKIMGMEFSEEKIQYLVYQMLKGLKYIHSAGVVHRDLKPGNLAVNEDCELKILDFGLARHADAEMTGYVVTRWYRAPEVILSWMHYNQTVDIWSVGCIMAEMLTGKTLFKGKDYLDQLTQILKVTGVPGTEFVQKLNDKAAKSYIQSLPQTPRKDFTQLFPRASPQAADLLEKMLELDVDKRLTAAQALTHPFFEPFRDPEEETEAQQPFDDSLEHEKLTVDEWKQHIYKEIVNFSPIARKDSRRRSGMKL

[3] = biological target: T2, Ephrin type-B receptor 2 (Homo sapiens) (UniProt P29323); experiment: Inhibition of human EphB2 at 1 uM relative to control; values are per cent of control
T2 sequence (whole entry): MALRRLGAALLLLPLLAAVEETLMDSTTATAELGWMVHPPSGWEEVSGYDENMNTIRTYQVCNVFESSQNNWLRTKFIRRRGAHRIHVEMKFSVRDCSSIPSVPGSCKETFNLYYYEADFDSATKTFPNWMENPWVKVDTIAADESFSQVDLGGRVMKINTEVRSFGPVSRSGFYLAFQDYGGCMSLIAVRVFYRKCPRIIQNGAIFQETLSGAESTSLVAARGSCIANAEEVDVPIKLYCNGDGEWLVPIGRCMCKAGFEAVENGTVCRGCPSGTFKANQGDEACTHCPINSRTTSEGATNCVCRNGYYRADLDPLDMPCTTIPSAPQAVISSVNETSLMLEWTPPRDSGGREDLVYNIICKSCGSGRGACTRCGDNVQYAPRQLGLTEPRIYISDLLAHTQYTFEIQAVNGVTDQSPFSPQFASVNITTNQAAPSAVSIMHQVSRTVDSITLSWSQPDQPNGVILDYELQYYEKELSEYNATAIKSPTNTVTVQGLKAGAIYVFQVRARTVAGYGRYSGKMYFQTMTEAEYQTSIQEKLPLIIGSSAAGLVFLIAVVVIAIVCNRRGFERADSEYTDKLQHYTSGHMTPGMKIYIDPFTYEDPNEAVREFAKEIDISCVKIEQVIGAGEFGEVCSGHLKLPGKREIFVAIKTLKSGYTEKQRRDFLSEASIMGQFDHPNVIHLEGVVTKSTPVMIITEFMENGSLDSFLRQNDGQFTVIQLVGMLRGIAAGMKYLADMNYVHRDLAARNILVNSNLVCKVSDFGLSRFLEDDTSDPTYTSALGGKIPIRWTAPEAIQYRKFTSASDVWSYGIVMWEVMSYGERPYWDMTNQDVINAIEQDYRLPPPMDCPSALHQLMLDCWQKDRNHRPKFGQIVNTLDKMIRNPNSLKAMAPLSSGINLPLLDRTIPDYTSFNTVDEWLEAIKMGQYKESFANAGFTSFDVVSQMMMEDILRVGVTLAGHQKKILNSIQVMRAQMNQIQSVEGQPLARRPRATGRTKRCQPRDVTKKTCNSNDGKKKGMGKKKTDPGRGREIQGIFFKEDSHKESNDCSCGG

[4] = biological target: Ribosomal protein S6 kinase alpha-5 (Homo sapiens, UniProt O75582); experiment: Inhibition of human MSK1 at 1 uM relative to control; values are per cent of control
Chain of Ribosomal protein S6 kinase alpha-5 (O75582 whole entry, looked up): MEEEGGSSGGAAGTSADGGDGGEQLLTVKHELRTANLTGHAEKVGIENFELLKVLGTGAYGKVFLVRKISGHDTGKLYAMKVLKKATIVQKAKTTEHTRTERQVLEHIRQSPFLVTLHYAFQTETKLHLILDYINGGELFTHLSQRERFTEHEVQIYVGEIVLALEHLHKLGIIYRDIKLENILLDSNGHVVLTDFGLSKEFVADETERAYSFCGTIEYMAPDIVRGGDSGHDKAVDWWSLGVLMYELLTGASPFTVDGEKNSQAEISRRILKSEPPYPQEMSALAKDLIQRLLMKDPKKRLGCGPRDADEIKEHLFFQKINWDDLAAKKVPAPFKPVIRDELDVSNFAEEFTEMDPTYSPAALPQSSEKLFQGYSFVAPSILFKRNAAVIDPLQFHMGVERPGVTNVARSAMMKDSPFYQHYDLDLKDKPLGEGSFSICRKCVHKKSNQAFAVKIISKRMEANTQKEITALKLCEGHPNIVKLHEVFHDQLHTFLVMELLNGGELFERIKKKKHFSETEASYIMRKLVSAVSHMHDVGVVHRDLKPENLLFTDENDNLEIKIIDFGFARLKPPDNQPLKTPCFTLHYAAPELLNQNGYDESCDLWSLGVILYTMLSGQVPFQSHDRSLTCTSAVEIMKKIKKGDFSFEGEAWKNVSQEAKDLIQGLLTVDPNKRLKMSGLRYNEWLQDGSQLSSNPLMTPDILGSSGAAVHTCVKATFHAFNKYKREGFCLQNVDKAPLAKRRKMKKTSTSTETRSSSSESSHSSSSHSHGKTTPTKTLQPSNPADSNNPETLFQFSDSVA

Homo sapiens [5] = species: Homo sapiens; experiment: Residual activity of human PKBalpha at 1 uM relative to control
[6] = biological target: Ribosomal protein S6 kinase alpha-1 (Homo sapiens, UniProt Q15418); experiment: Inhibition of human Rsk1 at 1 uM relative to control; values are per cent of control
Chain of Ribosomal protein S6 kinase alpha-1 (Q15418 whole entry): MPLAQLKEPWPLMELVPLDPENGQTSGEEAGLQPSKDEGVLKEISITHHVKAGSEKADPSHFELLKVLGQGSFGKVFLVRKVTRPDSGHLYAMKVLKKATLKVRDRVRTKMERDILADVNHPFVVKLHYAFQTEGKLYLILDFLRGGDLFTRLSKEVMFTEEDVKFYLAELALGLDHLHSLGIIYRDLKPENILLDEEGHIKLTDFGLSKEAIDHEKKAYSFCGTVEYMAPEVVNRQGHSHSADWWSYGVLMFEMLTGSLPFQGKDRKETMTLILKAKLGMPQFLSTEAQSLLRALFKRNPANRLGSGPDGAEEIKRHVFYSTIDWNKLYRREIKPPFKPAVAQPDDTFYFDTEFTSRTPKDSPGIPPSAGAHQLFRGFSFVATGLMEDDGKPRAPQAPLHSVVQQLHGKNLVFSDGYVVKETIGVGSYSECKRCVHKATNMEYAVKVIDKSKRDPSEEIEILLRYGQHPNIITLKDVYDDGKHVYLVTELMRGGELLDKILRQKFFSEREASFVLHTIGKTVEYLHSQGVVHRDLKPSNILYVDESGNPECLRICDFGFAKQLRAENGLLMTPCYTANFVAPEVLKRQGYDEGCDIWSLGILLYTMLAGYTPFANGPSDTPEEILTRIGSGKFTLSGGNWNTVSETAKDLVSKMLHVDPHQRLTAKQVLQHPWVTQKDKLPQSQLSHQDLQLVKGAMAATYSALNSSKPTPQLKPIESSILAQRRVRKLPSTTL

[7] = biological target: Mitogen-activated protein kinase 1 (Homo sapiens) (UniProt P28482); experiment: Inhibition of MAPK1 at 1 uM relative to control; values are per cent of control
Chain of Mitogen-activated protein kinase 1 (Homo sapiens) (P28482 whole entry): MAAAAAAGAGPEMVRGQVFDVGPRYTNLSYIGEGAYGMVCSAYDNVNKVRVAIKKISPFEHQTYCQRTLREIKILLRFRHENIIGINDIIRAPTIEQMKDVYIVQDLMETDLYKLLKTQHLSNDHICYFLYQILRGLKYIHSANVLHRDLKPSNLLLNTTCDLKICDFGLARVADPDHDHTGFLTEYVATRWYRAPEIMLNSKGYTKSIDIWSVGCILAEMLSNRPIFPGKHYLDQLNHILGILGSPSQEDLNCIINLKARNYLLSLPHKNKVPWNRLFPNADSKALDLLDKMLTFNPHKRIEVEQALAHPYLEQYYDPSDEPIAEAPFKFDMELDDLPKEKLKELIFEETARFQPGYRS

[8] = biological target: Mitogen-activated protein kinase 9 (Homo sapiens) (UniProt P45984); experiment: Inhibition of human JNK2-alpha-2 at 1 uM relative to control; values are per cent of control
Chain of Mitogen-activated protein kinase 9 (Homo sapiens) (P45984 whole entry, looked up): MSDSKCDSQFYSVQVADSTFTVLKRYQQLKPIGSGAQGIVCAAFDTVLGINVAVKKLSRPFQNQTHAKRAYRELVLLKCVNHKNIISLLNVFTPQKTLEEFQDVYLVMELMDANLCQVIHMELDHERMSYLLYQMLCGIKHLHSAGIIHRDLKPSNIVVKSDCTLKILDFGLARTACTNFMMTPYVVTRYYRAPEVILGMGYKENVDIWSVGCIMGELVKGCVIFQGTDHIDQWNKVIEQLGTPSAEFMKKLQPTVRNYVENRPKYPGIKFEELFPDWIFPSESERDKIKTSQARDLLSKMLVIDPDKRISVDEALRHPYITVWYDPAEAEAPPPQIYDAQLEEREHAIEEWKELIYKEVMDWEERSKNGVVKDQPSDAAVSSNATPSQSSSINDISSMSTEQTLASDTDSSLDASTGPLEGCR

[9] = biological target: Tyrosine-protein kinase Fes/Fps (Homo sapiens) (UniProt P07332); experiment: Inhibition of human Fes at 1 uM relative to control; values are per cent of control
Chain of Tyrosine-protein kinase Fes/Fps (Homo sapiens) (P07332 whole entry): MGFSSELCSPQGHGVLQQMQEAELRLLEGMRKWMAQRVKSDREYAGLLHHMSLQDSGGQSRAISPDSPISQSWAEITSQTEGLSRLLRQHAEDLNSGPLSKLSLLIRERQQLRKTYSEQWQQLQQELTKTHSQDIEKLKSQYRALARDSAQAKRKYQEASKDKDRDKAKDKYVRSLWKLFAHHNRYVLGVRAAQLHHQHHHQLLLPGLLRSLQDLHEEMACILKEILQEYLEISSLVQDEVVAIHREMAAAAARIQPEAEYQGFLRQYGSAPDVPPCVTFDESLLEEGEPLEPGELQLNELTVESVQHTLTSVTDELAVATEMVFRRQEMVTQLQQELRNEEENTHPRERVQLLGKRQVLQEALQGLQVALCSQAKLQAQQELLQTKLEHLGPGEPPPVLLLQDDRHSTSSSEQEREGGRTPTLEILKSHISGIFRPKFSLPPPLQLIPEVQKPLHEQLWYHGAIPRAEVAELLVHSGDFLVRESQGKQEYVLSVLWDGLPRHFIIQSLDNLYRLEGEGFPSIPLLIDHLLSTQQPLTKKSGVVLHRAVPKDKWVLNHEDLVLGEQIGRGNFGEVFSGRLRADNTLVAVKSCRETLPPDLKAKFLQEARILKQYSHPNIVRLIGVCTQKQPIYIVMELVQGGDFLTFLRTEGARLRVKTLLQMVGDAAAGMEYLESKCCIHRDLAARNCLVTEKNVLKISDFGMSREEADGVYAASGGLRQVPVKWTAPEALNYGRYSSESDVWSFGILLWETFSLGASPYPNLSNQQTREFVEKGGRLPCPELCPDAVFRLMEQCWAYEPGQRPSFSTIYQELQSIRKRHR

[10] = biological target: Glycogen synthase kinase-3 alpha (Homo sapiens) (UniProt P49840); experiment: Inhibition of human GSK3alpha relative to control; values are per cent of control
[11] = biological target: Tyrosine-protein kinase ABL2 (Mus musculus) (UniProt Q4JIM5); experiment: Residual activity of mouse Arg at 1 uM relative to control
[12] = biological target: T3, Mitogen-activated protein kinase 12 (Homo sapiens) (UniProt P53778); experiment: Inhibition of human SAPK3 at 1 uM relative to control; values are per cent of control
T3 sequence (whole entry): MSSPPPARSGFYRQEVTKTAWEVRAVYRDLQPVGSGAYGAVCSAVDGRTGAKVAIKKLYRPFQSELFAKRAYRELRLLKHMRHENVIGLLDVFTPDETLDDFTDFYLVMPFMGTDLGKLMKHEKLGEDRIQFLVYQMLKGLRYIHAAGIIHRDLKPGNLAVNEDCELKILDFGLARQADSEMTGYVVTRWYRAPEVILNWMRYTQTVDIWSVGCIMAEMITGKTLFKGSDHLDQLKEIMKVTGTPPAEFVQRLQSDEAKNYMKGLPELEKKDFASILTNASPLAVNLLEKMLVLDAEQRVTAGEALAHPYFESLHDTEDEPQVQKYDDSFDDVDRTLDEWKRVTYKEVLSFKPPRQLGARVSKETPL

[13] = biological target: Mitogen-activated protein kinase 10 (Homo sapiens) (UniProt P53779); experiment: Inhibition of human JNK3 at 1 uM relative to control; values are per cent of control
Chain of Mitogen-activated protein kinase 10 (Homo sapiens) (P53779 whole entry): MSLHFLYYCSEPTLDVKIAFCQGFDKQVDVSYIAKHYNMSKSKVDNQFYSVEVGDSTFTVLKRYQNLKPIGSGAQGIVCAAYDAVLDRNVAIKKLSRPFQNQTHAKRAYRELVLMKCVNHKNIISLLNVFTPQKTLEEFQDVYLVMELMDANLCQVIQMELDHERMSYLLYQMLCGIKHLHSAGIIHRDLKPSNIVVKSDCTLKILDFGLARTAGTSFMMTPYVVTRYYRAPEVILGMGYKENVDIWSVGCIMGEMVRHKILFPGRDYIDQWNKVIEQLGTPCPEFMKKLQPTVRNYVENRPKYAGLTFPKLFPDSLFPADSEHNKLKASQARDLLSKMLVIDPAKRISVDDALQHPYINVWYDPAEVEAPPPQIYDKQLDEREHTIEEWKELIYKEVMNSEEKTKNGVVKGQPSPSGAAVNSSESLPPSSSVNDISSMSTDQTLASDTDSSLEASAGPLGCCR

[14] = biological target: Tyrosine-protein kinase ZAP-70 (Homo sapiens) (UniProt P43403); experiment: Residual activity of human ZAP70 kinase at 1 uM relative to control
Chain of Tyrosine-protein kinase ZAP-70 (Homo sapiens) (P43403 whole entry, looked up): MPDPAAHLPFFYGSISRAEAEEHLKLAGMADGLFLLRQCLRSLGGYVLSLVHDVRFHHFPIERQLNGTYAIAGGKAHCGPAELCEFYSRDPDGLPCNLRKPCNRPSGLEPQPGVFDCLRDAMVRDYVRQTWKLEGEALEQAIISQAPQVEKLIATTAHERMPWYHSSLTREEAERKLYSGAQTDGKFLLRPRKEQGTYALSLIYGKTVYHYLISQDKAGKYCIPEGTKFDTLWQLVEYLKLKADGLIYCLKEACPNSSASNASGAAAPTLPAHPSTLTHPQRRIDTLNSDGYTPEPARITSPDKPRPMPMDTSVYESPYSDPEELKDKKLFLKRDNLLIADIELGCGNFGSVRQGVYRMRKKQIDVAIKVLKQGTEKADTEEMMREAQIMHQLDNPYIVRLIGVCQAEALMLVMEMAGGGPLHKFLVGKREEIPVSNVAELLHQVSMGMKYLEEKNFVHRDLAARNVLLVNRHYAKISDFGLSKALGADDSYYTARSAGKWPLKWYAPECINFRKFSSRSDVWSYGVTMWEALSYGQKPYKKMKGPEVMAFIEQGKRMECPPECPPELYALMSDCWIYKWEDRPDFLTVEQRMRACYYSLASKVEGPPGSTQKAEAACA

Homo sapiens [15] = species: Homo sapiens; experiment: Residual activity of human CDK1/Cyclin B at 1 uM relative to control

Chain of Proto-oncogene tyrosine-protein kinase Src (Homo sapiens) (P12931 2-536 limits assumed): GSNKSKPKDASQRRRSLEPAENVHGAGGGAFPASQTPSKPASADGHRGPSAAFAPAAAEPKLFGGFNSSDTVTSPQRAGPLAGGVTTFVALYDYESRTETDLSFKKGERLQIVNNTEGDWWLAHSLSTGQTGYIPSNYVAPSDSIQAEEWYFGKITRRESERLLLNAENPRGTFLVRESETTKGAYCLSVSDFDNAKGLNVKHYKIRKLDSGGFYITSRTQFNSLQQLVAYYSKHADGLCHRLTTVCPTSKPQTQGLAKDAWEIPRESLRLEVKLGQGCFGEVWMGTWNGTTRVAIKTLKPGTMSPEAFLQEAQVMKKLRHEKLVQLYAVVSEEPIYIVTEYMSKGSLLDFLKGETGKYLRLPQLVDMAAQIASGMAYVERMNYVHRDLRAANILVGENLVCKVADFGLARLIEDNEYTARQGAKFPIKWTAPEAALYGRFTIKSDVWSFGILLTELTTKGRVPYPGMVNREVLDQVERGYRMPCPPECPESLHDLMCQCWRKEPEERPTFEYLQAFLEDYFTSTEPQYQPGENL

Structure (SMILES): O=C1NC(=O)C2=C1c1cn(c3ccccc13)CCCc1ccc(c(N3CCCC3)n1)CCCn1cc2c2ccccc21
- residual activity [1]: 113%
- residual activity [2]: 102%
- residual activity [3]: 114%
- residual activity [4]: 104%
- residual activity (Homo sapiens [5]): 106%
- residual activity [6]: 85%
- residual activity [7]: 110%
- residual activity [8]: 110%
- residual activity [9]: 130%
- residual activity [10]: 9%
- residual activity [11]: 130%
- residual activity [12]: 114%
- residual activity [13]: 102%
- residual activity [14]: 121%

Structure (SMILES): CN(C)c1nc2ccc1CCCn1cc(c3ccccc31)C1=C(C(=O)NC1=O)c1cn(c3ccccc13)CC2
- residual activity [1]: 81%
- residual activity [2]: 101%
- residual activity [3]: 125%
- residual activity [4]: 36%
- residual activity (Homo sapiens [5]): 94%
- residual activity [6]: 39%
- residual activity [7]: 97%
- residual activity [8]: 96%
- residual activity [9]: 107%
- residual activity (Homo sapiens [15]): 78%
- residual activity [10]: 4%
- residual activity [11]: 113%
- residual activity [12]: 78%
- residual activity [13]: 96%
- residual activity [14]: 113%

Structure (SMILES): CN(C)c1cc2cc(n1)CCCn1cc(c3ccccc31)C1=C(C(=O)NC1=O)c1cn(c3ccccc13)CCC2
- residual activity [1]: 105%
- residual activity [2]: 104%
- residual activity [3]: 114%
- residual activity [4]: 58%
- residual activity (Homo sapiens [5]): 114%
- residual activity [6]: 15%
- residual activity [7]: 86%
- residual activity [8]: 106%
- residual activity [9]: 133%
- residual activity (Homo sapiens [15]): 98%
- residual activity [10]: 3%
- residual activity [11]: 129%
- residual activity [12]: 115%
- residual activity [13]: 107%
- residual activity [14]: 103%

Structure (SMILES): O=C1NC(=O)C2=C1c1cn(c3ccccc13)CCCc1cc(nc(N3CCCC3)c1)CCCn1cc2c2ccccc21
- residual activity [1]: 97%
- residual activity [2]: 102%
- residual activity [3]: 110%
- residual activity [4]: 38%
- residual activity (Homo sapiens [5]): 112%
- residual activity [6]: 15%
- residual activity [7]: 99%
- residual activity [8]: 114%
- residual activity [9]: 139%
- residual activity (Homo sapiens [15]): 80%
- residual activity [10]: 4%
- residual activity [11]: 121%
- residual activity [12]: 103%
- residual activity [13]: 103%
- residual activity [14]: 115%
